Results published in US20210130420A1, “RECOMBINANT BINDING PROTEINS TARGETING HER2 AND SERUM ALBUMIN, AND THEIR USES” (Molecular Partners AG, priority 2016, published 2021).
Where a chain is given by its changes, count along the chain named.

Assays:
AKT [1] = assay: Phospho-site specific ELISA, BT474 cells; format: cell-based, human; conditions: 100 nM, 18 hours
GXA3039 = assay: Gastric cancer patient derived tumor xenograft mouse model GXA3039; format: in vivo; conditions: GXA3039, FIG. 4D; Protein #21 60 mg/kg, antibodies 10 mg/kg, every three days for 6 times
Method: Further, Protein #21 was expressed and purified as described in Example 1. […] All groups were dosed every three days for 6 times. Briefly, tumor fragments were obtained from xenografts in serial passage in nude mice. After removal from donor mice, tumors were cut into fragments (4-5 mm diameter) for subcutaneous implantation. Mice were randomized into groups when tumors reached a volume of approximately 100-120 mm^3. The day of randomization and treatment initiation is designated as day 0 in each experiment. Tumor growth was monitored by two-dimensional measurement with a caliper on the day of randomization and then twice weekly. Relative volumes of individual tumors (individual RTVs) for Day x were calculated by dividing the individual tumor volume on Day x (Tx) by the individual volume of the same tumor on Day 0 (TO) multiplied by 100%. Tumor inhibition for a particular day (T/C in %) was calculated from the ratio of the median RTV values of test versus control groups multiplied by 100%.

RAF = assay: Phospho-proteome mass spectrometry of BT474 cells; format: cell-based, human; conditions: 100 nM, 18 hours
From the text: (§1) Protein #21 was expressed and purified as described in Example 1. […] Cells were then subjected to a phospho-proteome mass-spectrometry analysis as described by Britton, D., et al. (Britton, D., Zen, Y., Quaglia, A., Selzer, S., Mitra, VI., Lössner, C., Jung, S., Bohm, G., Schmid, P., Prefot, P., Hoehle, C., Koncarevic, S., Gee, J., Nicholson, R., Ward, M., Castellano, L., Stebbing, J., Zucht, H. D., Sarker, D., Heaton, N., and Pike, I., 2014. PLOS One 9 (3), e90948).

mTOR = assay: Phospho-proteome mass spectrometry of BT474 cells; format: cell-based, human; conditions: 100 nM, 18 hours
From the text: as §1

AKT [2] = assay: Phospho-proteome mass spectrometry of BT474 cells; format: cell-based, human; conditions: 100 nM, 18 hours
From the text: as §1

RPS6KB1/S6 Kinase = assay: Phospho-proteome mass spectrometry of BT474 cells; format: cell-based, human; conditions: 100 nM, 18 hours
From the text: as §1

HER3 = assay: Phosphorylation state ELISA, BT474 cells; format: cell-based, human; conditions: 100 nM, 18 hours
BT474 cells = assay: Induction of apoptosis, Caspase 3/7 activation; format: cell-based, human; conditions: FIG. 7
Method: Briefly, 10000 BT474 cells were seeded per well in a 96 well plate in100 μl complete medium and incubated for 24 hours. […] Caspase Glo reagent was added according to the manufactures protocol for 1 hour. Caspase 3/7 activation was monitored by measuring luciferase activity. Alternatively induction of apoptosis was determined using the Cell Death Detection [sequence] system (Roche, Switzerland). The assay was performed according to the manufactures protocol. Cell number and incubations times were similar to the Caspase Glo readout. Data were analyzed using the GraphPad prism software, plotting concentration on the x-axis against OD405/490 nm or relative light units (RLU; measured on a Tecan M-1000 reader) on the y-axis. Data were fitted using a non-linear regression fit (log(agonist) vs. response—Variable slope (four parameters)).

Foxo3a protein [3] = assay: Cellular levels of Foxo3a protein in NCI-N87 cells; format: cell-based; conditions: compared to an exposure to PBS only
From the text: as §1
(§2) It is known to the practitioner in the art, that Akt1 phosphorylates Foxo3a, resulting in the degradation of Foxo3a and promotion of cell survival. Inhibition of Act phosphorylation leads to stabilization of Foxo3a and thus increase in Foxo3a levels. At increased levels Foxo3a can translocate to the nucleus and induce apoptosis.

Foxo3a protein [4] = assay: Cellular levels of Foxo3a protein in BT474 cells; format: cell-based, human; conditions: compared to an exposure to PBS only
From the text: as §1, §2

HER1/EGFR = assay: Phosphorylation state ELISA, BT474 cells; format: cell-based, human; conditions: 100 nM, 18 hours
[5] = Storage stability in PBS analysed by SDS-PAGE; format: physicochemical
Method: “Improved storage stability” in the context of the present invention means the reduction of the amounts of a degradation band, preferably the reduction of the amount of degradation products, as detected by a Coomassie-stained SDS-PAGE occurring after storage at 40° C. for 1 month at 10 mg/ml in PBS, by at least 5%, 10%, 15%, 20%, 25%, 30%, 35%, 40%, 45%, 50%, or 50%. Methods to assess storage stability by SDS-PAGE are well known to the person skilled in the art. Examples of designed ankyrin repeat domains and recombinant binding proteins with improved storage stability properties are given in Examples 2 and 3.
Protein #13-His, Protein #14-His and Protein #15-His were prepared as described in Example 1, and samples were concentrated to 10 mg/ml in PBS. Protein #14-His and Protein #15-His where then stored for 1 month at −80° C. or at 40° C. in glass vials, followed by analysis on SDS 15% PAGE. […] These findings illustrate that Protein #14-His has improved storage stability compared to Proteins #13-His and Protein #15-His.
A storage stability improvement is also observed, when testing the storage stability of Protein #21 and Protein #22 (recombinant binding proteins consisting of the amino acid sequences corresponding to SEQ ID NOs: 21 and 22, respectively). Protein #21 and Protein #22 are prepared as described in Example 1, samples are concentrated to 10 mg/ml in PBS and stored for 1 month at −80° C. in or at 40° C. in glass vials, followed by analysis on standard size-exclusion chromatography.

[6] = Thermal unfolding, midpoint of thermal denaturation; format: physicochemical; conditions: pH 6.0
From the text: Degradation may for example occur in the vicinity of any one of the 5 asparagines (including asparagine-glycine dipeptides), 13 aspartates, or 10 glycines of SEQ ID NO: 13, amongst additional potential degradation sites. SEQ ID NO: 13 further comprises a number of potential oxidation sites. […] When mutating aspartate at position 80 of SEQ ID NO: 13 to glutamate, a functional designed ankyrin repeat domain with binding specificity for serum albumin was generated, corresponding to SEQ ID NO: 14, which does show a marked improvement in storage stability (Example 3; FIGS. 2A and 2B).

## Pertuzumab [reference compound]
AKT [1]
  AKT S473 phosphorylation: 0.73 fold change to PBS
GXA3039
  inhibition of tumor growth, second experiment: significantly less efficacious
RAF
  RAF S642 phosphorylation: 1.2 fold change to PBS
  RAF T631/T638/T640/T641/S642 phosphorylation: 1.01 fold change to PBS
mTOR
  mTOR S2448/S2454 phosphorylation: 1.09 fold change to PBS
AKT [2]
  AKT S124 phosphorylation: 1.04 fold change to PBS
  AKT S129 phosphorylation: 1.16 fold change to PBS
RPS6KB1/S6 Kinase
  RPS6KB1/S6Kinase S441/T444/S447 phosphorylation: 1.02 fold change to PBS
  RPS6KB1/S6Kinase T444/S447 phosphorylation: 1.04 fold change to PBS
HER3
  HER3 Pan-Phospho-Tyrosine: 0.78 fold change to PBS
BT474 cells
  induction of apoptosis in BT474 cells: did not induce apoptosis
Foxo3a protein [3]
  increase of cellular levels of Foxo3a protein: 1.25 fold
Foxo3a protein [4]
  increase of cellular levels of Foxo3a protein: 1.21 fold
HER1/EGFR
  HER1/EGFR Pan-Phospho-Tyrosine: 0.68 fold change to PBS

B1: Protein #14-His: SEQ ID NO: 14 with a His-tag; stability-improved serum albumin binding designed ankyrin repeat domain, aspartate 80 of SEQ ID NO: 13 mutated to glutamate (protein)
chain: GSDLGKKLLEAARAGQDDEVRELLKAGADVNAKDYFSHTPLHLAARNGHLKIVEVLLKAGADVNAKDFAGKTPLHLAANEGHLEIVEVLLKAGADVNAQDIFGKTPADIAADAGHEDIAEVLQKAA
modifications: His-tag; Designed ankyrin repeat domain
[5]; 10 mg/ml in PBS, 1 month at −80° C., SDS 15% PAGE
  stability upon storage at −80° C.: equivalent stability
[5]; 10 mg/ml in PBS, glass vials, 1 month at 40° C., SDS 15% PAGE
  reduction of degradation products compared to Protein #15-His: > 50%
[5]; 10 mg/ml in PBS, one week at 40° C., SDS 15% PAGE
  reduction of degradation products compared to Protein #13-His: > 50%
[5]; 10 mg/ml in PBS, one week at 60° C., SDS 15% PAGE
  reduction of degradation products compared to Protein #13-His: > 50%
[6]
  midpoint of thermal denaturation Tm: 89.5 °C

B2: Protein #13-His: SEQ ID NO: 13 with a His-tag; designed ankyrin repeat domain with binding specificity for serum albumin (WO2012/069654) (protein)
chain: B1 chain with E80D
modifications: His-tag; Designed ankyrin repeat domain
[5]; in PBS at 10 mg/ml at 40° C.
  degradation upon prolonged incubation: degrade
[6]
  midpoint of thermal denaturation Tm: 86 °C
